# Test results taken from patent US9061028B2, “Process for the preparation of Nilotinib” (Natco Pharma Limited, priority 2012, dated 2015).
# Structures can show the parent of a compound that is named as a salt.
# Tests used:
# [1] = Polymorph stability under accelerated stress conditions (40±2° C., 75±5% RH), by XRD; format: physicochemical; details: accelerated high humidity stress conditions
# [2] = Thermal stability of polymorph form on heating at 60-70° C., examined by XRPD; format: physicochemical; details: for Polymorph form detected after heating: oil bath 60-70° C., XRPD
structure (smiles),measurement,setting,value
Cc1cn(-c2cc(NC(=O)c3ccc(C)c(Nc4nccc(-c5cccnc5)n4)c3)cc(C(F)(F)F)c2)cn1 [Nilotinib hydrochloride],XRD spectra after storage,[1],essentially the same and unchanged
same,Stability to heat,[2]; 70° C./40 hours,stable to heat
same,Polymorph form detected after heating,[2]; time of heating 10 hours,XRD pattern unchanged
same,Polymorph form detected after heating,[2]; time of heating 20 hours,XRD pattern unchanged
same,Polymorph form detected after heating,[2]; time of heating 30 hours,XRD pattern unchanged
same,Polymorph form detected after heating,[2]; time of heating 40 hours,XRD pattern unchanged
same,Hygroscopicity,40° C./75% RH,non-hygroscopic
same,Final moisture content after 60 days 40° C. at humidity of 75%,"60 days, 40° C./75% RH, karl-fischer",5.2%
same,Initial moisture Content (%),"before storage, karl-fischer",5.26%
